Consider 27 compounds from US20250177396A1, “POLO-LIKE KINASE 4 (PLK4) INHIBITORS, PHARMACEUTICAL COMPOSITIONS, METHODS OF PREPARATION AND USES THEREOF” (Repare Therapeutics Inc., priority 2022, published 2025).

SMILES strings stand for the structures. Where only a bound is given, the exact number is not on record here.

In this assay the target is T1, PLK4 (Homo sapiens, UniProt O00444).
T1 construct: expressed in transfected cells; host or cells: HEK293 T cells (ATCC CRL-3216)
T1 sequence (O00444 1-970): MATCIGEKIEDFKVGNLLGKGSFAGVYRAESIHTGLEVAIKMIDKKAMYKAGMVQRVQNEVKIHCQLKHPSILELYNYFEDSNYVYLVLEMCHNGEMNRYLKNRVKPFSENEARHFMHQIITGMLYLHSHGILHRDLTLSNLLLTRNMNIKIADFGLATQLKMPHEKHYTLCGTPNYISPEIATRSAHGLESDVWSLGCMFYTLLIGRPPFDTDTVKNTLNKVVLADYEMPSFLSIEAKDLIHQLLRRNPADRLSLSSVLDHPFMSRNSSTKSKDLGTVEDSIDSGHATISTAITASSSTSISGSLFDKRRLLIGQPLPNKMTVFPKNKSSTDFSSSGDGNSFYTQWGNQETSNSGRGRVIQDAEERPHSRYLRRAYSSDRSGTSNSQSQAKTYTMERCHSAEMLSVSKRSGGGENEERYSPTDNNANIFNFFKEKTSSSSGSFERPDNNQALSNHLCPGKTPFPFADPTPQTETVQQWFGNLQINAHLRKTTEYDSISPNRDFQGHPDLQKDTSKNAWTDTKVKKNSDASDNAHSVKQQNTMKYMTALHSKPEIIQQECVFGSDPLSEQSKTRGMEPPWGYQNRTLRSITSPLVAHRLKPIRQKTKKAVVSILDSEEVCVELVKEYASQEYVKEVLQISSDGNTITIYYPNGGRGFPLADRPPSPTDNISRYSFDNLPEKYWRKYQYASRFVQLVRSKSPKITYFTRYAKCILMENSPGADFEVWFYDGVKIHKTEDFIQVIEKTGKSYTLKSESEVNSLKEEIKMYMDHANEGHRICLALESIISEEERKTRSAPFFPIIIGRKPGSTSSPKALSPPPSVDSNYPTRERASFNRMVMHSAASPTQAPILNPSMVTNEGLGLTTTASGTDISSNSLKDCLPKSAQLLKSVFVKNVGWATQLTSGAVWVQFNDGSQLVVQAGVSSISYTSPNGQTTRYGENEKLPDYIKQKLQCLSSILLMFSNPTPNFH
Nature of the assay: PLK4 NanoBRET target engagement assay. Format: binding. Conditions: HEK293 T cells transfected with PLK4 NanoLuc fusion vector; K-5 tracer; 2 hrs incubation. In outline: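 HEK293T cells transiently expressing PLK4-NanoLuc, plated at 17000 cells/well with K-5 tracer and compound, incubated 2 h at 37 °C/5% CO2. After substrate/inhibitor mix, 610/450 nm emission ratio ×1000 gave mBRET; IC50 from 4-parameter fit.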
(BRET reads energy transfer from a luciferase to a nearby fluorophore.)
What is called IC50 is the concentration at which inhibition is half-maximal. Regarding `Cc1cc(Nc2nc(N(C)c3c(F)cc(C#N)cc3F)nc(-c3cn(C)cn3)c2C2CC2)n[nH]1` [Compound 339], the IC50 came to 24 nM. The compound `Cc1cc(Nc2nc(N(C)c3c(F)cc(S(C)(=O)=O)cc3F)nc(-c3cc(CC#N)n(C)n3)c2C2CC2)n[nH]1` [Compound 340] registered an IC50 of 4 nM. `COCc1cc(Nc2nc(N(C)c3c(F)cc(S(C)(=O)=O)cc3F)nc(-c3cnn(C)c3)c2C2CC2)n[nH]1` [Compound 341] registered a half-inhibitory concentration (IC50) of 420 nM. In the case of `Cc1cc(Nc2nc(N(C)c3c(F)cc(S(C)(=O)=O)cc3F)nc(-c3cnn(C)c3N3CCOC3=O)c2C2CC2)n[nH]1` [Compound 342], the IC50 turned out to be 4 nM. Then `Cc1cc(Nc2nc(N(C)c3c(F)cc(C4CC4)cc3F)nc(-c3cn(C)cn3)c2C2CC2)n[nH]1` [Compound 343], with 26 nM; and `Cc1cc(Nc2nc(N(C)c3ccc(S(C)(=O)=O)cc3F)nc(-c3cnn(C)c3)c2OC2CC2)n[nH]1` [Compound 344, 5-cyclopropoxy-N^2-(2-fluoro-4-(methylsulfonyl)phenyl)-N^2-methyl-N^4-(5-methyl-1H-pyrazol-3-yl)-6-(1-methyl-1H-pyrazol-4-yl)pyrimidine-2,4-diamine], with 73 nM. The compound `CC#Cc1cc(Nc2nc(N(C)c3c(F)cc(S(C)(=O)=O)cc3F)nc(-c3cnn(C)c3)c2C2CC2)n[nH]1` [Compound 345] had a 50% inhibitory concentration (IC50) of 33 nM. Then `Cc1cc(Nc2nc(N(C)c3c(F)cc(S(C)(=O)=O)cc3F)nc(N3CCC[C@@H]3C(N)=O)c2C2CC2)n[nH]1` [Compound 346], with 12 nM; and `Cc1cc(Nc2nc(N(C)c3c(F)cc(S(=O)(=O)C4CC4)cc3F)nc(-c3cn(C)cn3)c2C2CC2)n[nH]1` [Compound 347], with 5 nM; and `Cc1cc(Nc2nc(N(C)c3c(F)cc(-c4ccc(=O)n(C)c4)cc3F)nc(-c3cn(C)cn3)c2C2CC2)n[nH]1` [Compound 348], with 46 nM. As for `CC(=O)N1CCC(c2cc(F)c(N(C)c3nc(Nc4cc(C)[nH]n4)c(C4CC4)c(-c4cn(C)cn4)n3)c(F)c2)CC1` [Compound 349], the figure is 46 nM; as for `Cc1cc(Nc2nc(N(C)c3c(F)cc(C4CCOCC4)cc3F)nc(-c3cn(C)cn3)c2C2CC2)n[nH]1` [Compound 350], 31 nM; as for `Cc1cc(Nc2nc(N(C)c3c(F)cc(B(O)O)cc3F)nc(-c3cn(C)cn3)c2C2CC2)n[nH]1` [Compound 351], 52 nM. Then `Cc1cc(Nc2nc(N(C)c3c(F)cc(S(C)(=O)=O)cc3F)nc(-c3cn[nH]c3C(C)C)c2C2CC2)n[nH]1` [Compound 352], with 3 nM. `Cc1cc(Nc2nc(N(C)c3c(F)cc(N4CCOC4=O)cc3F)nc(-c3cn(C)cn3)c2C2CC2)n[nH]1` [Compound 353] yielded a concentration for half-maximal inhibition (IC50) of 6 nM.

Turning to `Cc1cc(Nc2nc(N(C)c3c(F)cc(C(N)=O)cc3F)nc(-c3cn(C)cn3)c2C2CC2)n[nH]1` [Compound 354], 17 nM corresponded to half-maximal inhibition (IC50). This IC50 lies about 2.8-fold higher than the previous one.

Take `Cc1cc(Nc2nc(N(C)c3c(F)cc(C(=O)N(C)C)cc3F)nc(-c3cn(C)cn3)c2C2CC2)n[nH]1` [Compound 355]: inhibition was half-maximal at 190 nM (IC50). This IC50 is about 11-fold higher than that of the compound before. As for `Cc1cc(Nc2nc(N(C)c3c(F)cc(C(=O)N4CCOCC4)cc3F)nc(-c3cn(C)cn3)c2C2CC2)n[nH]1` [Compound 356], the figure is 260 nM; as for `Cc1cc(Nc2nc(N(C)c3c(F)cc(N4CCS(=O)(=O)CC4)cc3F)nc(-c3cn(C)cn3)c2C2CC2)n[nH]1` [Compound 357], 300 nM; as for `Cc1cc(Nc2nc(N(C)c3c(F)cc(C4(C(N)=O)CC4)cc3F)nc(-c3cn(C)cn3)c2C2CC2)n[nH]1` [Compound 358], 27 nM. Regarding `Cc1cc(Nc2nc(N(C)c3c(F)cc(C(=O)N4CCC4)cc3F)nc(-c3cn(C)cn3)c2C2CC2)n[nH]1` [Compound 359], the IC50 was 65 nM.

Compound `Cc1cc(Nc2nc(N(C)c3c(F)cc([N+](=O)[O-])cc3F)nc(-c3cn(C)cn3)c2C2CC2)n[nH]1` [Compound 360] displayed an IC50 of 10 nM. Consider `Cc1cc(Nc2nc(N(C)c3c(F)cc(CC(=O)N(C)C)cc3F)nc(-c3cn(C)cn3)c2C2CC2)n[nH]1` [Compound 361], for which the IC50 is more than 5000 nM.

In turn, `Cc1cc(Nc2nc(N(C)c3c(F)cc(C4(C#N)CC4)cc3F)nc(-c3cn(C)cn3)c2C2CC2)n[nH]1` [Compound 362] gave an IC50 of 4 nM. That is a single-digit nanomolar value. Consider `Cc1cc(Nc2nc(N(C)c3c(F)cc(CC(=O)N4CCC4)cc3F)nc(-c3cn(C)cn3)c2C2CC2)n[nH]1` [Compound 363], for which the IC50 is more than 5000 nM.

Consider `Cc1cc(Nc2nc(N(C)c3c(F)cc(CC(=O)N4CCOCC4)cc3F)nc(-c3cn(C)cn3)c2C2CC2)n[nH]1` [Compound 364], for which the IC50 is more than 5000 nM. For the compound `Cc1cc(Nc2nc(N(C)c3c(F)cc(S(C)(=O)=O)cc3F)nc(-c3cn(C4CC(O)C4)nc3C)c2C2CC2)n[nH]1` (stereo not drawn) [Compound 365], the IC50 amounted to 4 nM. This counts as single-digit nanomolar.
